Source: paper PMC12292390, “Discovery of Dietary Plant Flavonols as Novel Potent Inhibitors Targeting DYRK1A Kinase” (Biomolecules, 2025)
Entries after “also recorded” stand apart in the source; their conditions may differ. Read-outs that look alike come from different tables or passages of the source.

How the values were obtained:
DYRK1A = target: T1, DYRK1A (Homo sapiens, UniProt Q13627); test: DYRK1A kinase inhibition assay (ADP-Glo Kinase Assay, DYRKtide substrate); format: biochemical; details: for DYRK1A inhibition (in words): at the concentrations tested;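 on all read-outs here: DYRKtide phosphorylation read out by luminescence, reaction run in Tris buffer pH 7.5 with MgCl2 and BSA, containing 1% DMSO or methanol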
T1 construct: The DNA encoding DYRK1A with a non-cleavable N-terminal MBP-tag was synthesized by Genscript; made in house; host or cells: E. coli BL21 (DE3) RIPL

[1] = ref ChemSpider, cited from earlier work; for LogP: ACD/LogP; for HBA (hydrogen bond acceptor number): first figure of HBA/HBD; for PSA: polar surface area; for HBD (hydrogen bond donor number): second figure of HBA/HBD
HeLa cells [2] = test: Cell morphology analysis (microscopy); format: cell-based; details: 72 h
Procedure: (§1) HeLa cells were maintained in high-glucose Dulbecco’s Modified Eagle Medium (DMEM) supplemented with 10% (v/v) fetal bovine serum (FBS) at 37 °C in an incubator with 5% CO2.
HeLa cells were seeded at a density of 1.5 × 10^5 per well in 6-well plates and incubated overnight. Cells were then treated with different concentrations of flavonoids for 72 h. The final concentrations of methanol and DMSO were 4% and 1%, respectively. Morphology changes were observed using an Olympus IX83 (Evident Scientific, Tokyo, Japan) inverted microscope with a 40× objective.

HeLa cells [3] = test: Cell viability assay (WST-8); format: cell-based; details: 48 h treatment, WST-8, various concentrations
Procedure: as §1
HeLa cells were seeded at a density of 3.3 × 10^3 per well in 96-well plates and incubated overnight. Cells were then treated with various concentrations of flavonoids. After 48 h incubation, 10 μL of WST-8 reagent (ab228554, Abcam, Waltham, MA, USA) was added to each well and incubated for 1 h at 37 °C. Absorbance was measured at 460 nm using a microtiter plate reader (SpectraMax iD3, Molecular Devices, LLC., San Jose, CA, USA).

[4] = ADP-Glo, 100 μM ATP, 1 mg/mL DYRKtide, 30 nM DYRK1A, 1 h room temperature, read-out: IC50

With O=c1c(O)c(-c2ccccc2)oc2ccc(O)cc12 [3,6-Dihydroxyflavone] as the compound, how does the “DYRK1A inhibition (in words)” value (DYRK1A) read?
Its value is “only weak inhibition; also recorded: low inhibition of kinase”.

What about the LogP [1] of the same compound?
Its LogP is 3.64.

And the “HBA (hydrogen bond acceptor number)” value [1]?
Its value is 4.

And the PSA [1]?
Its PSA is 67 Å^2.

What about the “HBD (hydrogen bond donor number)” value [1] of the same compound?
The value was 2.

For O=c1c(O)c(-c2ccccc2)oc2cc(O)ccc12 [3,7-Dihydroxyflavone], which “DYRK1A inhibition (in words)” value (DYRK1A) is on record?
Its value is “only weak inhibition; also recorded: low inhibition of kinase”.

What about the LogP [1] of the same compound?
Its LogP is 3.27.

And the “HBA (hydrogen bond acceptor number)” value [1]?
The value was 4.

And the PSA [1]?
The PSA was 67 Å^2.

And the “HBD (hydrogen bond donor number)” value [1]?
Its value is 2.

With O=c1c(O)c(-c2ccccc2)oc2ccccc12 [3-Hydroxyflavone] as the compound, how does the “DYRK1A inhibition (in words)” value (DYRK1A) read?
Its value is “no detectable activity; also recorded: low inhibition of kinase”.

And the LogP [1]?
Its LogP is 3.76.

And the “HBA (hydrogen bond acceptor number)” value [1]?
The value was 3.

And the PSA [1]?
The PSA was 47 Å^2.

What about the “HBD (hydrogen bond donor number)” value [1] of the same compound?
The value was 1.

For O=c1cc(-c2ccc(O)cc2)oc2cc(O)cc(O)c12 [Apigenin], which IC50 (DYRK1A; [4]) is on record?
The IC50 was 1020 nM.

And the “DYRK1A inhibition (in words)” value (DYRK1A)?
The value was “effective inhibition”.

And the “DYRK1A inhibition (in words)” value (DYRK1A; listed as apigenin)?
Its value is “only weak inhibition”.

What about the LogP [1] of the same compound?
The LogP was 3.04.

What about the “HBA (hydrogen bond acceptor number)” value [1] of the same compound?
Its value is 5.

And the PSA [1]?
Its PSA is 87 Å^2.

What about the “HBD (hydrogen bond donor number)” value [1] of the same compound?
Its value is 3.

For O=C1c2c(O)cc(O)cc2O[C@H](c2cc(O)c(O)c(O)c2)[C@H]1O [Dihydromyricetin], which “DYRK1A inhibition (in words)” value (DYRK1A) is on record?
The value was “no detectable activity; also recorded: lack of activity”.

What about the LogP [1] of the same compound?
The LogP was 1.23.

And the “HBA (hydrogen bond acceptor number)” value [1]?
Its value is 8.

What about the PSA [1] of the same compound?
The PSA was 148 Å^2.

And the “HBD (hydrogen bond donor number)” value [1]?
The value was 6.

Which results are given for O=c1c(O)c(-c2ccc(O)c(O)c2)oc2cc(O)ccc12 [Fisetin]?
morphological changes in HeLa cells (HeLa cells [2]; 40 μM, 4% methanol): clear apoptotic features, including cell shrinkage, detachment, and the formation of apoptosis bodies; also recorded: classic apoptosis features; cytotoxicity / cell viability of HeLa cells (in words) (HeLa cells [3]): slight cytotoxicity effect; cytotoxicity / cell viability of HeLa cells (in words) (HeLa cells [3]; listed as fisetin): significantly reduced; IC50 (DYRK1A; [4]): 149 nM; LogP [1]: 2.52; HBA (hydrogen bond acceptor number) [1]: 6; PSA [1]: 107 Å^2; HBD (hydrogen bond donor number) [1]: 4

For COc1cc(-c2oc3cc(O)cc(O)c3c(=O)c2O)ccc1O [Isorhamnetin], which “morphological changes in HeLa cells” value (HeLa cells [2]; 40 μM, 4% methanol) is on record?
The value was “clear apoptotic features, including cell shrinkage, detachment, and the formation of apoptosis bodies; also recorded: classic apoptosis features”.

And the “cytotoxicity / cell viability of HeLa cells (in words)” value (HeLa cells [3])?
The value was “minimal cytotoxicity”.

And the IC50 (DYRK1A)?
The IC50 was 418 nM.

What about the “DYRK1A inhibition (in words)” value (DYRK1A) of the same compound?
Its value is “moderate activity”.

And the LogP [1]?
Its LogP is 1.76.

And the “HBA (hydrogen bond acceptor number)” value [1]?
Its value is 7.

And the PSA [1]?
Its PSA is 116 Å^2.

What about the “HBD (hydrogen bond donor number)” value [1] of the same compound?
The value was 4.

For COc1ccc(-c2oc3cc(O)cc(O)c3c(=O)c2O)cc1 [Kaempferide], which IC50 (DYRK1A; [4]) is on record?
Its IC50 is 3520 nM.

What about the “DYRK1A inhibition (in words)” value (DYRK1A) of the same compound?
The value was “effective inhibition”.

What about the “DYRK1A inhibition (in words)” value (DYRK1A; listed as kaempferide) of the same compound?
Its value is “only weak inhibition; also recorded: low inhibition of kinase”.

And the LogP [1]?
Its LogP is 2.74.

And the “HBA (hydrogen bond acceptor number)” value [1]?
The value was 6.

What about the PSA [1] of the same compound?
Its PSA is 96 Å^2.

What about the “HBD (hydrogen bond donor number)” value [1] of the same compound?
Its value is 3.

For O=c1c(O)c(-c2ccc(O)cc2)oc2cc(O)cc(O)c12 [Kaempferol, 3,5,7,4′-tetrahydroxyflavone], which “morphological changes in HeLa cells” value (HeLa cells [2]; 100 μM, 1% DMSO) is on record?
The value was “significant elongation and shrinkage; also recorded: elongated morphology”.

And the “cytotoxicity / cell viability of HeLa cells (in words)” value (HeLa cells [3])?
The value was “significant cytotoxicity; also recorded: significantly reduced; also recorded: significant cytotoxic and pro-apoptotic effects”.

What about the IC50 (DYRK1A; [4]) of the same compound?
Its IC50 is 296 nM.

What about the “DYRK1A inhibition (in words)” value (DYRK1A) of the same compound?
The value was “moderate activity”.

And the LogP [1]?
The LogP was 2.05.

And the “HBA (hydrogen bond acceptor number)” value [1]?
Its value is 6.

And the PSA [1]?
Its PSA is 107 Å^2.

And the “HBD (hydrogen bond donor number)” value [1]?
Its value is 4.

Which results are given for O=c1cc(-c2ccc(O)c(O)c2)oc2cc(O)cc(O)c12 [Luteolin]?
IC50 (DYRK1A; [4]): 798 nM; LogP [1]: 2.40; HBA (hydrogen bond acceptor number) [1]: 6; PSA [1]: 107 Å^2; HBD (hydrogen bond donor number) [1]: 4

Which results are given for O=c1c(O)c(-c2ccc(O)cc2O)oc2cc(O)cc(O)c12 [Morin]?
morphological changes in HeLa cells (HeLa cells [2]; 40 μM, 4% methanol): clear apoptotic features, including cell shrinkage, detachment, and the formation of apoptosis bodies; also recorded: classic apoptosis features; cytotoxicity / cell viability of HeLa cells (in words) (HeLa cells [3]): slight cytotoxicity effect; also recorded: significantly reduced; IC50 (DYRK1A; [4]): 478 nM; LogP [1]: 1.61; HBA (hydrogen bond acceptor number) [1]: 7; PSA [1]: 127 Å^2; HBD (hydrogen bond donor number) [1]: 5

What does the source list for O=c1c(O)c(-c2cc(O)c(O)c(O)c2)oc2cc(O)cc(O)c12 [Myricetin]?
IC50 (DYRK1A; [4]): 633 nM; LogP [1]: 2.11; HBA (hydrogen bond acceptor number) [1]: 8; PSA [1]: 148 Å^2; HBD (hydrogen bond donor number) [1]: 6

For O=C1C[C@@H](c2ccc(O)cc2)Oc2cc(O)cc(O)c21 [Naringenin], which “DYRK1A inhibition (in words)” value (DYRK1A) is on record?
The value was “only weak inhibition”.

And the LogP [1]?
Its LogP is 3.19.

And the “HBA (hydrogen bond acceptor number)” value [1]?
Its value is 5.

And the PSA [1]?
The PSA was 87 Å^2.

And the “HBD (hydrogen bond donor number)” value [1]?
The value was 3.

Which IC50 (DYRK1A; [4]) does the source give for O=c1c(O)c(-c2ccc(O)c(O)c2)oc2cc(O)cc(O)c12 [Quercetin, reference compound] here?
Its IC50 is 738 nM.

And the LogP [1]?
The LogP was 2.08.

What about the “HBA (hydrogen bond acceptor number)” value [1] of the same compound?
Its value is 7.

What about the PSA [1] of the same compound?
Its PSA is 127 Å^2.

And the “HBD (hydrogen bond donor number)” value [1]?
Its value is 5.
